Measurements: ChEMBL document CHEMBL5236661, “A new selective inhibitor for IMP-1 metallo-β-lactamase, 3Z,5E-octa-3,5-diene-1,3,4-tricarboxylic acid-3,4-anhydride” (Bioorg Med Chem, 2023)
Active and inactive are the calls of the source. The rule behind the calls is not given here.

Columns and labels:
Escherichia coli [1] = test: Antibacterial activity against Escherichia coli KB366 expressing IMP-1 assessed as inhibition of bacterial growth at 0.3 ug in presence of meropenem incubated overnight by paper disk method; assay type: functional; settings: read-out: IZ
Pseudomonas aeruginosa [2] = test: Antibacterial activity against Pseudomonas aeruginosa KB367 expressing IMP-1 assessed as inhibition of bacterial growth at 10 ug in presence of meropenem incubated overnight by paper disk method; assay type: functional; settings: read-out: IZ
Escherichia coli [3] = test: Antibacterial activity against Escherichia coli KB366 expressing IMP-1 assessed as inhibition of bacterial growth at 30 ug in presence of meropenem incubated overnight by paper disk method; assay type: functional; settings: read-out: IZ
Escherichia coli [4] = test: Antibacterial activity against Escherichia coli KB366 expressing IMP-1 assessed as inhibition of bacterial growth at 100 ug in absence of meropenem incubated overnight by paper disk method; assay type: functional, organism-based; settings: dose 100.0 µg
Escherichia coli [5] = test: Antibacterial activity against Escherichia coli KB366 expressing IMP-1 assessed as inhibition of bacterial growth at 10 ug in absence of meropenem incubated overnight by paper disk method; assay type: functional, organism-based; settings: dose 10.0 µg
Pseudomonas aeruginosa [6] = test: Antibacterial activity against Pseudomonas aeruginosa KB367 expressing IMP-1 assessed as inhibition of bacterial growth at 100 ug in presence of meropenem incubated overnight by paper disk method; assay type: functional; settings: read-out: IZ
[7] = Inhibition of bacterial Metallo-beta-lactamase IMP-1 using nitrocefin as substrate pre-incubated for 15 mins followed by substrate addition by microplate reader; design: species or system Bacteria
Pseudomonas aeruginosa [8] = test: Antibacterial activity against Pseudomonas aeruginosa KB367 expressing IMP-1 assessed as inhibition of bacterial growth at 3 ug in absence of meropenem incubated overnight by paper disk method; assay type: functional, organism-based; settings: dose 3.0 µg
Pseudomonas aeruginosa [9] = test: Antibacterial activity against Pseudomonas aeruginosa KB367 expressing IMP-1 assessed as inhibition of bacterial growth at 30 ug in presence of meropenem incubated overnight by paper disk method; assay type: functional; settings: read-out: IZ
Pseudomonas aeruginosa [10] = test: Antibacterial activity against Pseudomonas aeruginosa KB367 expressing IMP-1 assessed as inhibition of bacterial growth at 0.3 ug in presence of meropenem incubated overnight by paper disk method; assay type: functional, organism-based; settings: dose 0.3 µg
Pseudomonas aeruginosa [11] = test: Antibacterial activity against Pseudomonas aeruginosa KB367 expressing IMP-1 assessed as inhibition of bacterial growth at 1 ug in presence of meropenem incubated overnight by paper disk method; assay type: functional
Pseudomonas aeruginosa [12] = test: Antibacterial activity against Pseudomonas aeruginosa KB367 expressing IMP-1 assessed as inhibition of bacterial growth at 100 ug in absence of meropenem incubated overnight by paper disk method; assay type: functional, organism-based; settings: dose 100.0 µg
Pseudomonas aeruginosa [13] = test: Antibacterial activity against Pseudomonas aeruginosa KB367 expressing IMP-1 assessed as inhibition of bacterial growth at 30 ug in absence of meropenem incubated overnight by paper disk method; assay type: functional, organism-based; settings: dose 30.0 µg
Escherichia coli [14] = test: Antibacterial activity against Escherichia coli KB366 expressing IMP-1 assessed as inhibition of bacterial growth at 100 ug in presence of meropenem incubated overnight by paper disk method; assay type: functional; settings: read-out: IZ
Pseudomonas aeruginosa [15] = test: Antibacterial activity against Pseudomonas aeruginosa KB367 expressing IMP-1 assessed as inhibition of bacterial growth at 3 ug in presence of meropenem incubated overnight by paper disk method; assay type: functional; settings: read-out: IZ
Pseudomonas aeruginosa [16] = test: Antibacterial activity against Pseudomonas aeruginosa KB367 expressing IMP-1 assessed as inhibition of bacterial growth at 0.1 ug in absence of meropenem incubated overnight by paper disk method; assay type: functional, organism-based; settings: dose 0.1 µg
Pseudomonas aeruginosa [17] = test: Antibacterial activity against Pseudomonas aeruginosa KB367 expressing IMP-1 assessed as inhibition of bacterial growth at 10 ug in absence of meropenem incubated overnight by paper disk method; assay type: functional, organism-based; settings: dose 10.0 µg
Escherichia coli [18] = test: Antibacterial activity against Escherichia coli KB366 expressing IMP-1 assessed as inhibition of bacterial growth at 0.1 ug in absence of meropenem incubated overnight by paper disk method; assay type: functional, organism-based; settings: dose 0.1 µg
Pseudomonas aeruginosa [19] = test: Antibacterial activity against Pseudomonas aeruginosa KB367 expressing IMP-1 assessed as inhibition of bacterial growth at 0.03 ug in presence of meropenem incubated overnight by paper disk method; assay type: functional, organism-based; settings: dose 0.03 µg
Pseudomonas aeruginosa [20] = test: Antibacterial activity against Pseudomonas aeruginosa KB367 expressing IMP-1 assessed as inhibition of bacterial growth at 0.1 ug in presence of meropenem incubated overnight by paper disk method; assay type: functional, organism-based; settings: dose 0.1 µg
Pseudomonas aeruginosa [21] = test: Antibacterial activity against Pseudomonas aeruginosa KB367 expressing IMP-1 assessed as inhibition of bacterial growth at 0.3 ug in absence of meropenem incubated overnight by paper disk method; assay type: functional, organism-based; settings: dose 0.3 µg
Escherichia coli [22] = test: Antibacterial activity against Escherichia coli KB366 expressing IMP-1 assessed as inhibition of bacterial growth at 0.01 ug in absence of meropenem incubated overnight by paper disk method; assay type: functional, organism-based; settings: dose 0.01 µg
Escherichia coli [23] = test: Antibacterial activity against Escherichia coli KB366 expressing IMP-1 assessed as inhibition of bacterial growth at 3 ug in presence of meropenem incubated overnight by paper disk method; assay type: functional; settings: read-out: IZ
Pseudomonas aeruginosa [24] = test: Antibacterial activity against Pseudomonas aeruginosa KB367 expressing IMP-1 assessed as inhibition of bacterial growth at 1 ug in absence of meropenem incubated overnight by paper disk method; assay type: functional, organism-based; settings: dose 1.0 µg
Pseudomonas aeruginosa [25] = test: Antibacterial activity against Pseudomonas aeruginosa KB367 expressing IMP-1 assessed as inhibition of bacterial growth at 0.01 ug in presence of meropenem incubated overnight by paper disk method; assay type: functional, organism-based; settings: dose 0.01 µg
Escherichia coli [26] = test: Antibacterial activity against Escherichia coli KB366 expressing IMP-1 assessed as inhibition of bacterial growth at 0.3 ug in absence of meropenem incubated overnight by paper disk method; assay type: functional, organism-based; settings: dose 0.3 µg
Escherichia coli [27] = test: Antibacterial activity against Escherichia coli KB366 expressing IMP-1 assessed as inhibition of bacterial growth at 1 ug in absence of meropenem incubated overnight by paper disk method; assay type: functional, organism-based; settings: dose 1.0 µg
Escherichia coli [28] = test: Antibacterial activity against Escherichia coli KB366 expressing IMP-1 assessed as inhibition of bacterial growth at 30 ug in absence of meropenem incubated overnight by paper disk method; assay type: functional, organism-based; settings: dose 30.0 µg
Escherichia coli [29] = test: Antibacterial activity against Escherichia coli KB366 expressing IMP-1 assessed as inhibition of bacterial growth at 0.03 ug in presence of meropenem incubated overnight by paper disk method; assay type: functional; settings: read-out: IZ
Escherichia coli [30] = test: Antibacterial activity against Escherichia coli KB366 expressing IMP-1 assessed as inhibition of bacterial growth at 3 ug in absence of meropenem incubated overnight by paper disk method; assay type: functional, organism-based; settings: dose 3.0 µg
Escherichia coli [31] = test: Antibacterial activity against Escherichia coli KB366 expressing IMP-1 assessed as inhibition of bacterial growth at 10 ug in presence of meropenem incubated overnight by paper disk method; assay type: functional; settings: read-out: IZ
Escherichia coli [32] = test: Antibacterial activity against Escherichia coli KB366 expressing IMP-1 assessed as inhibition of bacterial growth at 0.03 ug in absence of meropenem incubated overnight by paper disk method; assay type: functional, organism-based; settings: dose 0.03 µg
Escherichia coli [33] = test: Antibacterial activity against Escherichia coli KB366 expressing IMP-1 assessed as inhibition of bacterial growth at 0.1 ug in presence of meropenem incubated overnight by paper disk method; assay type: functional; settings: read-out: IZ
Escherichia coli [34] = test: Antibacterial activity against Escherichia coli KB366 expressing IMP-1 assessed as inhibition of bacterial growth at 0.01 ug in presence of meropenem incubated overnight by paper disk method; assay type: functional; settings: dose 0.01 µg
Pseudomonas aeruginosa [35] = test: Antibacterial activity against Pseudomonas aeruginosa KB367 expressing IMP-1 assessed as inhibition of bacterial growth at 0.01 ug in absence of meropenem incubated overnight by paper disk method; assay type: functional, organism-based; settings: dose 0.01 µg
Escherichia coli [36] = test: Antibacterial activity against Escherichia coli KB366 expressing IMP-1 assessed as inhibition of bacterial growth at 1 ug in presence of meropenem incubated overnight by paper disk method; assay type: functional; settings: read-out: IZ
Pseudomonas aeruginosa [37] = test: Antibacterial activity against Pseudomonas aeruginosa KB367 expressing IMP-1 assessed as inhibition of bacterial growth at 0.03 ug in absence of meropenem incubated overnight by paper disk method; assay type: functional, organism-based; settings: dose 0.03 µg

Structure (SMILES)	zone of inhibition at 0.3 µg/disc (Escherichia coli [1])	zone of inhibition at 10 µg/disc (Pseudomonas aeruginosa [2])	zone of inhibition at 30 µg/disc (Escherichia coli [3])	inhibition zone (IZ) (Escherichia coli [4])	inhibition zone (IZ) (Escherichia coli [5])	zone of inhibition at 100 µg/disc (Pseudomonas aeruginosa [6])	IC50 [7]	inhibition zone (IZ) (Pseudomonas aeruginosa [8])	zone of inhibition at 30 µg/disc (Pseudomonas aeruginosa [9])	inhibition zone (IZ) (Pseudomonas aeruginosa [10])	inhibition zone (IZ) (Pseudomonas aeruginosa [12])	inhibition zone (IZ) (Pseudomonas aeruginosa [13])	zone of inhibition at 100 µg/disc (Escherichia coli [14])	zone of inhibition at 3 µg/disc (Pseudomonas aeruginosa [15])	inhibition zone (IZ) (Pseudomonas aeruginosa [16])	inhibition zone (IZ) (Pseudomonas aeruginosa [17])	inhibition zone (IZ) (Escherichia coli [18])	inhibition zone (IZ) (Pseudomonas aeruginosa [19])	inhibition zone (IZ) (Pseudomonas aeruginosa [20])	inhibition zone (IZ) (Pseudomonas aeruginosa [21])	other results
CCCC/C(C(=O)[O-])=C(/C(=O)[O-])c1ccc(O)c(O)c1.[Na+].[Na+]	12 mm	14 mm	27 mm	inactive	inactive	20 mm	0.56 µg/mL	inactive	18 mm	inactive	inactive	inactive	31 mm	11 mm	inactive	inactive	inactive	inactive	inactive	inactive	zone of inhibition at 1 µg/disc (Pseudomonas aeruginosa [11]; read-out: IZ): 9 mm; inhibition zone (IZ) (Escherichia coli [22]): inactive; zone of inhibition at 3 µg/disc (Escherichia coli [23]): 19 mm; inhibition zone (IZ) (Pseudomonas aeruginosa [24]): inactive; inhibition zone (IZ) (Pseudomonas aeruginosa [25]): inactive; inhibition zone (IZ) (Escherichia coli [26]): inactive; inhibition zone (IZ) (Escherichia coli [27]): inactive; inhibition zone (IZ) (Escherichia coli [28]): inactive; zone of inhibition at 0.03 µg/disc (Escherichia coli [29]): 9 mm; inhibition zone (IZ) (Escherichia coli [30]): inactive; zone of inhibition at 10 µg/disc (Escherichia coli [31]): 22 mm; inhibition zone (IZ) (Escherichia coli [32]): inactive; zone of inhibition at 0.1 µg/disc (Escherichia coli [33]): 10 mm; inhibition zone (IZ) (Escherichia coli [34]): inactive; inhibition zone (IZ) (Pseudomonas aeruginosa [35]): inactive; zone of inhibition at 1 µg/disc (Escherichia coli [36]): 15 mm; inhibition zone (IZ) (Pseudomonas aeruginosa [37]): inactive
CC/C=C/C(C(=O)[O-])=C(\CCC)C(=O)[O-].[Na+].[Na+]	16 mm	14 mm	28 mm	inactive	inactive	23 mm	2.2 µg/mL	inactive	19 mm	inactive	inactive	inactive	30 mm	7 mm	inactive	inactive	inactive	inactive	inactive	inactive	inhibition zone (IZ) (Pseudomonas aeruginosa [11]; dose 1.0 µg): inactive; inhibition zone (IZ) (Escherichia coli [22]): inactive; zone of inhibition at 3 µg/disc (Escherichia coli [23]): 21 mm; inhibition zone (IZ) (Pseudomonas aeruginosa [24]): inactive; inhibition zone (IZ) (Pseudomonas aeruginosa [25]): inactive; inhibition zone (IZ) (Escherichia coli [26]): inactive; inhibition zone (IZ) (Escherichia coli [27]): inactive; inhibition zone (IZ) (Escherichia coli [28]): inactive; zone of inhibition at 0.03 µg/disc (Escherichia coli [29]): 11 mm; inhibition zone (IZ) (Escherichia coli [30]): inactive; zone of inhibition at 10 µg/disc (Escherichia coli [31]): 26 mm; inhibition zone (IZ) (Escherichia coli [32]): inactive; zone of inhibition at 0.1 µg/disc (Escherichia coli [33]): 13 mm; inhibition zone (IZ) (Escherichia coli [34]): inactive; inhibition zone (IZ) (Pseudomonas aeruginosa [35]): inactive; zone of inhibition at 1 µg/disc (Escherichia coli [36]): 19 mm; inhibition zone (IZ) (Pseudomonas aeruginosa [37]): inactive
